We go through two compounds from patent US11187660B2, “Fluorescent probes for monitoring voltage by photo-induced electron transfer” (The Regents of the University of California, priority 2011, dated 2021).

For one series, the system named is leech Retzius cell. Description: Optical recording of spontaneous activity in leech ganglia. The format is cell-based, Hirudo medicinalis. The following applies: sampling at 50 Hz, stained 15 min. The protocol:
A more stringent test of the usefulness of the PeT-based VSD is to determine whether it can accurately measure subthreshold activity in heterogeneous preparations. For this test we used leech ganglia, because their neurons have been well studied using both electrophysiological and other VSD recordings (14, 33-35). We isolated a midbody ganglion and stained it with VF2.1.Cl for 15 min at 22° C. (FIG. 13C). Insertion of a sharp electrode (25 MΩ) into a Retzius cell to enabled recording of its spontaneous activity while simultaneously recording the fluorescence signals from the same cell. […] The optically recorded spikes are truncated as a result of undersampling the optical signal; sampling at a higher rate (722 Hz) fully resolved the action potentials, but introduced a significant amount of sampling noise (FIG. 14). Although the action potential was subsampled at just 50 Hz, there is still a reliable transient in the optical trace that indicates the time when an action potential occurs, which is often what is needed.
Isolated midbody ganglia (Ganglia 8-16) were dissected from Hirudo medicinalis and the ventral side was desheathed using standard procedures. […]
Imaging was done with a Cascade 128+ EMCCD camera (Photometrics). […] The fluorescence illumination was from an LED that has its peak excitation wave-length in the excitation range for FITC. […] The data is stored in Matlab-readable files.

Series [1] can be described thus: Absorbance and emission spectra in n-octanol. The format is physicochemical. The protocol: VF2.4.Cl features an absorbance spectrum with a λmax in octanol (to simulate cellular membranes) centered at 527 nm (ε527=4×10^4 M^−1 cm^−1). Excitation of VF2.4.Cl at 527 nm results in emission centered at 540 nm (Φ=0.23) (FIG. 3).
UV absorbance and fluorescence spectra were recorded on a Cary 3E (Varian) and Fluorolog 2 (Spex) fluorimeter, respectively. Analytical, semi-preparative, and preparative HPLCs were performed on Agilent HPLCs, with Luna C18(2) columns (Phenomenex) using water (solvent A) and acetonitrile (solvent B) with 0.05% TFA as an additive. Low resolution ESI mass spectrometry was performed on an Agilent LC/MSD Trap XCT coupled to an Agilent HPLC. High resolution mass spectra were acquired on a ThermoFisher Orbitrap XL hybrid mass spectrometer. ^1H NMR spectra were collected in CDCl3 or d6-DMSO (Cambridge Isotope Laboratories, Cambridge, Mass.) at 25° C. on a 400 Varian Mercury Plus or Jeol ECA 500 spectrometer at the Department of Chemistry and Biochemistry NMR Facility at the University of California, San Diego. All chemical shifts are reported in the standard δ notation of parts per million using the peak of residual proton signals of CDCl3 or d6-DMSO as an internal reference.

Entries after “also recorded” stand apart in the source; their conditions may differ.

Take `CN(C)c1ccc(/C=C/c2ccc(/C=C/c3ccc(-c4c5cc(Cl)c(=O)cc-5oc5cc(O)c(Cl)cc45)c(S(=O)(=O)O)c3)cc2)cc1` [VF2.1.Cl, 5-(4-(4-(dimethyllamino)styryl)styryl)-2-(2,7-dichloro-6-hydroxy-3-oxo-3H-xanthen-9-yl)benzenesulfonic acid]: the “optical recording versus electrical recording of spontaneous activity” value in the series with leech Retzius cell is listed as “near-perfect matching of the subthreshold membrane potential; also recorded: faithfully followed the subthreshold fluctuations”.

Turning to `CCCCN(CCCC)c1ccc(/C=C/c2ccc(/C=C/c3ccc(-c4c5cc(Cl)c(=O)cc-5oc5cc(O)c(Cl)cc45)c(S(=O)(=O)O)c3)cc2)cc1` [VF2.4.Cl, 5-(4-(4-(dibutylamino)styryl)styryl)-2-(2,7-dichloro-6-hydroxy-3-oxo-3H-xanthen-9-yl)benzenesulfonic acid], in series [1], the “absorbance λmax” value stood at 527 nm, the Φ was found to be 0.23 and the ε527 turned out to be 40000 M⁻¹ cm⁻¹. In series [1] (excitation at 527 nm), this compound registered an emission centered at of 540 nm.
